# pIC50: −log10 of the molar value.
# Test system: HOP-62 multicell spheroids with HUVEC/MSC, viability
# Assay: Anticancer human tumor HOP-62 cell line growth inhibition [KRAS2];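 also: viability read after a week of compound exposure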;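 as to viability, T/C: 100% = DMSO vehicle-treated spheroids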
# Details: for pIC50: curve of first compound; for viability, T/C: stronger effect = lower value
# Description: Multicellular complex tumor spheroid response to RAS pathway inhibitors in combination with a targeted agents in patient-derived cell lines with oncogenic KRAS variants from multiple cancer types
# A high-throughput screen of multi-cell type tumor spheroids was designed to identify active combinations of targeted small molecules and KRAS pathway inhibitors. Complex spheroids include a stromal component modeled by human endothelial cells (HUVEC) and fibroblasts modeled by human mesenchymal stem cells (MSCs). The concentration ranges selected for each drug and investigational agent were based upon clinically achievable concentrations if the clinical Cmax of the agent was known.
# Compounds. The drugs and investigational agents: BI-3406 (NSC825286), BAY-293 (NSC824723), batoprotafib (TNO155; NSC825523), sotorasib (AMG 510; NSC818433), MRTX1257 (NSC819558), elimusertib (BAY 1895344; NSC800525), molibresib (GSK525762; NSC774829), temuterkib (LY3214996; NSC803410), venetoclax (NSC766270), alisertib (NSC759677), olaparib (NSC753686), talazoparib (NSC767125), erdafitinib (NSC781556), ipatasertib (NSC767898), cabozantinib (NSC761068), nintedanib (NSC756659), abemaciclib (NSC768073), docetaxel (NSC628503), trametinib (NSC758246), and sapanisertib (NSC764658) were obtained from the National Cancer Institute (NCI) Developmental Therapeutics Program Chemical Repository. The FDA-approved anticancer drug set is available from the Developmental Therapeutics Program. […] The stock solutions were prepared in dimethyl sulfoxide (DMSO, Sigma-Aldrich, St. Louis, MO, cat. D2650) at 800-fold the tested concentration and stored at -70 degrees C prior to their use. All drugs and investigational agents were tested over a range starting from a high concentration at or near the clinical Cmax and decreasing in half-log increments. If the clinical Cmax for an agent had not been determined, the highest concentration tested was 10 microM.
# Cell Culture. All cells were maintained in an incubator at 37 degrees C and 5% CO2 with 95% humidity. The PDC lines were cultured according to standard operating procedures established by the NCI PDMR (https://pdmr.cancer.gov/sops/default.htm). Briefly, all PDCs were thawed and cultured in Matrigel-coated flasks prepared with a working solution of 1X Ham's F-12 nutrient mix, without supplementation (Invitrogen, Waltham, MA, cat. 11765054), 100 U/mL penicillin-streptomycin (Invitrogen, cat. 15140122), and 2.5% Matrigel (Corning Inc., Corning, NY, cat. 354248) for the first three passages. All PDCs were cultured in complete DMEM/F-12 media containing advanced DMEM/F-12 (Invitrogen, cat. 12634028), 4.9% defined fetal bovine serum, heat inactivated (HyClone Laboratories Inc., Logan, UT, cat. SH30070.03HI), 389 ng/mL hydrocortisone (Sigma-Aldrich, cat. H4001), 9.7 ng/mL human EGF recombinant protein (Invitrogen, cat. PHG0313), 23.4 microg/mL adenine (Sigma-Aldrich, cat. A2786), 97.3 U/mL penicillin-streptomycin (Invitrogen, cat. 15140122), 1.9 mM L-glutamine (Invitrogen, cat. 25030081), and 9.7 microM Y-27632 dihydrochloride (Tocris Bioscience, Bristol, United Kingdom, cat. 1254). The PDCs were cultured in complete DMEM/F12 media without 9.7 microM Y-27632 dihydrochloride for at least two passages prior to the screen. The established cell line HOP-62 was cultured in RPMI 1640 medium, HEPES (Invitrogen, cat. 22400105) with 10% defined fetal bovine serum (HyClone Laboratories Inc., cat. SH30070.03) and 2 mM L-glutamine (Invitrogen, cat. 25030081). The pooled donor HUVEC were cultured in endothelial cell growth medium 2 (PromoCell, Heidelberg, Germany, cat. C-22011) and the hMSC were cultured in mesenchymal stem cell growth medium 2 (PromoCell, cat. C-28009). For all experiments, HUVEC and hMSC were used at passages </=5, while the malignant cell lines were used at passages </=15. […]
# [1] = second compound 0.1 µM, first compound 0.0316 µM
# [2] = second compound 0.1 µM, first compound 0.1 µM
# [3] = second compound 0.316 µM, first compound 0.0316 µM
# [4] = second compound 0.316 µM, first compound 0.1 µM
# [5] = second compound 1 µM, first compound 0.0316 µM
# [6] = second compound 1 µM, first compound 0.1 µM
# [7] = second compound 3.16 µM, first compound 0.0316 µM
# [8] = second compound 3.16 µM, first compound 0.1 µM
structure (smiles),measurement,setting,value
CN(C)C/C=C/C(=O)Nc1cc2c(Nc3ccc(F)c(Cl)c3)ncnc2cc1O[C@H]1CCOC1 + C=CC(=O)N1CCN(c2nc(OCC3CCCN3C)nc3c2CCN(c2cccc4cccc(C)c24)C3)CC1CC#N,pIC50,second compound 0.0316 µM,< 7.00
same,pIC50,second compound 0.1 µM,< 7.00
same,pIC50,second compound 0.316 µM,8.36
same,pIC50,second compound 1 µM,> 9.50
same,pIC50,second compound 3.16 µM,> 9.50
same,"viability, T/C","second compound 0.0316 µM, first compound 0.000316 µM",111%
same,"viability, T/C","second compound 0.0316 µM, first compound 0.001 µM",105%
same,"viability, T/C","second compound 0.0316 µM, first compound 0.00316 µM",94.9%
same,"viability, T/C","second compound 0.0316 µM, first compound 0.01 µM",86%
same,"viability, T/C","second compound 0.0316 µM, first compound 0.0316 µM",99.3%
same,"viability, T/C","second compound 0.0316 µM, first compound 0.1 µM",89.6%
same,"viability, T/C","second compound 0.1 µM, first compound 0.000316 µM",69%
same,"viability, T/C","second compound 0.1 µM, first compound 0.001 µM",75.4%
same,"viability, T/C","second compound 0.1 µM, first compound 0.00316 µM",67.1%
same,"viability, T/C","second compound 0.1 µM, first compound 0.01 µM",61.5%
same,"viability, T/C",[1],67.4%
same,"viability, T/C",[2],61.2%
same,"viability, T/C","second compound 0.316 µM, first compound 0.000316 µM",57.4%
same,"viability, T/C","second compound 0.316 µM, first compound 0.001 µM",52.6%
same,"viability, T/C","second compound 0.316 µM, first compound 0.00316 µM",49.4%
same,"viability, T/C","second compound 0.316 µM, first compound 0.01 µM",48.8%
same,"viability, T/C",[3],46.8%
same,"viability, T/C",[4],42.1%
same,"viability, T/C","second compound 1 µM, first compound 0.000316 µM",42.8%
same,"viability, T/C","second compound 1 µM, first compound 0.001 µM",44.9%
same,"viability, T/C","second compound 1 µM, first compound 0.00316 µM",41%
same,"viability, T/C","second compound 1 µM, first compound 0.01 µM",37%
same,"viability, T/C",[5],31.5%
same,"viability, T/C",[6],32.2%
same,"viability, T/C","second compound 3.16 µM, first compound 0.000316 µM",22.5%
same,"viability, T/C","second compound 3.16 µM, first compound 0.001 µM",0.2%
same,"viability, T/C","second compound 3.16 µM, first compound 0.00316 µM",3.5%
same,"viability, T/C","second compound 3.16 µM, first compound 0.01 µM",6.01%
same,"viability, T/C",[7],17.6%
same,"viability, T/C",[8],13.5%
COc1cc2nccc(Oc3ccc(NC(=O)C4(C(=O)Nc5ccc(F)cc5)CC4)cc3)c2cc1OC + C=CC(=O)N1CCN(c2nc(=O)n(-c3c(C)ccnc3C(C)C)c3nc(-c4c(O)cccc4F)c(F)cc23)C(C)C1,pIC50,second compound 0.1 µM,5.77
same,pIC50,second compound 0.316 µM,5.84
same,pIC50,second compound 1 µM,5.66
same,pIC50,second compound 3.16 µM,5.83
same,pIC50,second compound 10 µM,> 7.50
same,"viability, T/C",[1],50.1%
same,"viability, T/C",[2],52.9%
same,"viability, T/C","second compound 0.1 µM, first compound 0.316 µM",53.9%
same,"viability, T/C","second compound 0.1 µM, first compound 1 µM",73.4%
same,"viability, T/C","second compound 0.1 µM, first compound 3.16 µM",41.3%
same,"viability, T/C","second compound 0.1 µM, first compound 10 µM",21.6%
same,"viability, T/C",[3],54.2%
same,"viability, T/C",[4],54.7%
same,"viability, T/C","second compound 0.316 µM, first compound 0.316 µM",57.3%
same,"viability, T/C","second compound 0.316 µM, first compound 1 µM",67.6%
same,"viability, T/C","second compound 0.316 µM, first compound 3.16 µM",28.2%
same,"viability, T/C","second compound 0.316 µM, first compound 10 µM",37.7%
same,"viability, T/C",[5],52.9%
same,"viability, T/C",[6],64.6%
same,"viability, T/C","second compound 1 µM, first compound 0.316 µM",63.4%
same,"viability, T/C","second compound 1 µM, first compound 1 µM",72.3%
same,"viability, T/C","second compound 1 µM, first compound 3.16 µM",44%
same,"viability, T/C","second compound 1 µM, first compound 10 µM",18.4%
same,"viability, T/C",[7],55.1%
same,"viability, T/C",[8],57.3%
same,"viability, T/C","second compound 3.16 µM, first compound 0.316 µM",63.8%
same,"viability, T/C","second compound 3.16 µM, first compound 1 µM",64.5%
same,"viability, T/C","second compound 3.16 µM, first compound 3.16 µM",29.6%
same,"viability, T/C","second compound 3.16 µM, first compound 10 µM",15.4%
same,"viability, T/C","second compound 10 µM, first compound 0.0316 µM",33%
same,"viability, T/C","second compound 10 µM, first compound 0.1 µM",39.8%
same,"viability, T/C","second compound 10 µM, first compound 0.316 µM",36.7%
same,"viability, T/C","second compound 10 µM, first compound 1 µM",36%
same,"viability, T/C","second compound 10 µM, first compound 3.16 µM",26.6%
same,"viability, T/C","second compound 10 µM, first compound 10 µM",6.56%
